Tests used:
[1] = target: concanavalin A (Con A) (Canavalia ensiformis, UniProt P02866); conditions: higher affinity than glucose; cited from earlier work
[2] = test system: non-diabetic SD rats; format: in vivo, Sprague Dawley (SD) rats
Experimental: FIG. 3: (a) Plot of (♦) serum insulin and (◯) blood glucose levels following subcutaneous injection in non-diabetic SD rats at time 0 with TSB-C4-AEBM-2-insulin/native Con A (an α-methyl mannose-responsive material). An i.p. injection of α-methyl mannose was administered at 120 min as indicated by the *.
0.300 ml of the formulation prepared in Example 1 was injected subcutaneously into each of three normal male Sprague Dawley (SD) rats (Charles River Laboratories, Wilmington, Mass.) weighing between 400 and 500 g. Prior to formulation injection, blood glucose values were measured via tail vein bleeding using a Precision Xtra glucometer (Abbott Laboratories, Alameda, Calif.) and approximately 100 ul of serum was obtained via tail vein bleeding to assay for background insulin levels. Food was removed from the rat cages during the duration of the study. Serum and blood glucose values were obtained at 30 min, 60 min, 90 min, and 120 min post-injection. At 120 min after the injection, an intraperitoneal injection of a 25% w/v α-methyl-mannose solution was injected to provide a 2 g/kg dose after which serum and blood glucose values were obtained at 135 min, 150 min, 180 min, 210 min, 240 min, and 300 min.

| Compound | affinity for Con A relative to endogenous glucose [1] | conjugate release at physiologically normal blood glucose levels (background release) ([2]; rat, in vivo, sc) | response to exogenous α-methyl-mannose ([2]; summary statement on Examples 1-2) |
| --- | --- | --- | --- |
| COC1O[C@H](CO)[C@@H](O)[C@H](O)[C@@H]1O (stereo partly drawn) [α-methyl-mannose] | about 40 fold | – | – |
| exemplary conjugate with two AEBM affinity ligands: Conjugate with TSB-C4 as the scaffold, AEBM as the affinity ligand, insulin (conjugated at Phe-B1) as the drug | – | very little background release | significant response |

Reference: US8846103B2, “Exogenously triggered controlled release materials and uses thereof” (SmartCells, Inc., priority 2009, dated 2014)
